Results taken from the PolyMetriX glass transition set.
± gives the standard deviation of the reports.

With `*c1cccc(Oc2ccc(S(=O)(=O)c3ccc(Oc4cccc(-n5c(=O)c6cc7c(=O)n(*)c(=O)c7cc6c5=O)c4)cc3)cc2)c1` (repeat unit) the glass transition temperature was 223.2 °C.
Compound `*CC(*)c1ccc(/C(C)=N/O)cc1` (repeat unit) has a glass transition temperature of 134.00 °C.
With `*CC(*)c1ccc(C(=O)OCCN(CC)CC)cc1` (repeat unit) the glass transition temperature was 74.00 °C.
Compound `*c1cccc(Oc2cccc(Oc3cccc(N4C(=O)c5ccc(Oc6ccc7c(c6)C(=O)N(*)C7=O)cc5C4=O)c3)c2)c1` (repeat unit) has a glass transition temperature of 193.00 ± 8.5 °C.
For `*c1cccc(Oc2ccc(C#N)c(Oc3cccc(N4C(=O)c5ccc(Oc6ccc7c(c6)C(=O)N(*)C7=O)cc5C4=O)c3)c2)c1` (repeat unit), the glass transition temperature was 196.00 °C.
Work on `*CC(*)(C)C(=O)OCC1OC(n2ccc(=O)[nH]c2=O)C(O)C1O` (repeat unit) yielded a glass transition temperature of 143.50 °C.
`*CCN(CCN1C(=O)c2ccc(C(c3ccc4c(c3)C(=O)N(*)C4=O)(C(F)(F)F)C(F)(F)F)cc2C1=O)c1ccc(/N=N/c2ccc([N+](=O)[O-])cc2)cc1` (repeat unit) gave a glass transition temperature of 210.00 °C.
`*Nc1cc(NC(=O)c2cc(OCCN(C)c3ccc(C#N)cc3)cc(C(*)=O)c2)cc(C(=O)OCCN(C)c2ccc(S(=O)(=O)C(F)(F)C(F)(F)C(F)(F)C(F)(F)C(F)(F)C(F)(F)C(F)(F)C(F)(F)F)cc2)c1` (repeat unit) gave a glass transition temperature of 165.00 °C.
With `*CCC(C)C(*)(C)C(=O)OC` (repeat unit) the glass transition temperature was 45.00 °C.
With `*Oc1ccc(S(=O)(=O)c2ccc(Oc3ccc(C(C)(C)c4ccc(*)c(C(O)(C(F)(F)F)C(F)(F)F)c4)cc3C(O)(C(F)(F)F)C(F)(F)F)cc2)cc1` (repeat unit) the glass transition temperature was 167.00 °C.
For `*O[Si](C)(C)c1ccc([Si](C)(C)Oc2c(C)cc(-c3cc(C)c(*)c(C)c3)cc2C)cc1` (repeat unit), the glass transition temperature was 67.00 °C.
`*OC(=O)C(CCSC)NC(=O)CCCCC(=O)NC(CCSC)C(=O)OC1COC2C(*)COC12` (repeat unit) gave a glass transition temperature of 71.00 °C.
For `*CC(*)(CC(=O)OC)C(=O)OC12CC3CC(C)(CC(C)(C3)C1)C2` (repeat unit), the glass transition temperature was 144.00 °C.
For `*CCCCN1C(=O)c2ccc(C(c3ccc4c(c3)C(=O)N(*)C4=O)(C(F)(F)F)C(F)(F)F)cc2C1=O` (repeat unit), the glass transition temperature was 190.00 °C.
In the case of `*CC(*)(C)C(=O)OCCCn1c2ccccc2c2ccccc21` (repeat unit), the glass transition temperature is reported as 113.00 °C.
`*/C=C/CCCCCCCCCC(Cl)CCCCCCCCC*` (repeat unit) gave a glass transition temperature of -37.00 °C.
Compound `*CCC1CC(*)C2C3CC(c4ccc(COC(C)CC)cc4)C(C3)C12` (repeat unit) has a glass transition temperature of 139.00 °C.
`*C(=O)Nc1ccc(Oc2ccc(C3(c4ccc(Oc5ccc(NC(=O)c6ccc7c(c6)C(=O)N(c6ccc(N8C(=O)c9ccc(*)cc9C8=O)cc6)C7=O)cc5)cc4)NC(=O)c4ccccc43)cc2)cc1` (repeat unit) showed a glass transition temperature of 322.00 °C.
With `*CC(*)CCCI` (repeat unit) the glass transition temperature was 30.00 °C.
`*Oc1ccc(NC(=O)c2ccc(S(=O)(=O)c3ccc(C(=O)Nc4ccc(Oc5ccc(C(c6ccc(*)cc6)(C(F)(F)F)C(F)(F)F)cc5)cc4)cc3)cc2)cc1` (repeat unit) showed a glass transition temperature of 250.00 °C.
With `*Oc1ccc(S(=O)(=O)c2ccc3cc(S(=O)(=O)c4ccc(Oc5ccc(-c6ccc(*)cc6)cc5)cc4)ccc3c2)cc1` (repeat unit) the glass transition temperature was 255.00 °C.
With `*Oc1ccc(C(C)(C)c2ccc(OC(=O)Nc3cccc(P(=O)(c4ccccc4)c4cccc(NC(*)=O)c4)c3)cc2)cc1` (repeat unit) the glass transition temperature was 62.00 °C.
For `*CCCCCCOC(=O)OCCCCCCCCOC(=O)OCCCCCCn1c(=O)c2cc3c(=O)n(*)c(=O)c3cc2c1=O` (repeat unit), the glass transition temperature was 8.00 °C.
With `*O[Si](C)(C)O[Si](C)(C)O[Si](*)(C)c1c(F)c(F)c(F)c(F)c1F` (repeat unit) the glass transition temperature was -83.00 °C.
Work on `*C(=O)c1ccc(Oc2ccc(C3(c4ccc(Oc5ccc(C(=O)c6ccc7c(c6)C(=O)N(c6ccc(Cc8ccc(N9C(=O)c%10ccc(*)cc%10C9=O)cc8)cc6)C7=O)cc5)cc4)OC(=O)c4ccccc43)cc2)cc1` (repeat unit) yielded a glass transition temperature of 268.00 °C.
With `*Oc1c(F)c(F)c(S(=O)(=O)c2c(F)c(F)c(Oc3ccc(C(c4ccc(*)cc4)(C(F)(F)F)C(F)(F)F)cc3)c(F)c2F)c(F)c1F` (repeat unit) the glass transition temperature was 182.00 °C.
With `*CC(COC(=O)O*)OCCOc1ccc(/C=C/c2ccc([N+](=O)[O-])cc2)cc1` (repeat unit) the glass transition temperature was 53.00 °C.
Work on `*C(=O)Nc1cccc(S(=O)(=O)c2cccc(NC(=O)c3ccc4c(c3)C(=O)N(c3cc(-c5nnc(-c6ccccn6)o5)cc(N5C(=O)c6ccc(*)cc6C5=O)c3)C4=O)c2)c1` (repeat unit) yielded a glass transition temperature of 173.00 °C.
For `*Oc1cc(OC(=O)c2ccc(C)cc2)c(OC(=O)CCCCCCCCCCCCCCC(*)=O)cc1OC(=O)c1ccc(C)cc1` (repeat unit), the glass transition temperature was 27.00 °C.
Compound `*Oc1ccc(CC(NC(=O)CCc2ccc(OC(=O)COCCOCC(*)=O)cc2)C(=O)OCCCCCCCC)cc1` (repeat unit) has a glass transition temperature of 16.00 °C.
Compound `*CC(O)CN(*)c1cc(C)c(/N=N/c2ccc([N+](=O)[O-])cc2C)c(C)c1` (repeat unit) has a glass transition temperature of 149.00 °C.
`*c1ccc(C(=O)Oc2ccc(C(C)(C)c3ccc(OC(=O)c4ccc(N5C(=O)CC(SCCOCCSC6CC(=O)N(*)C6=O)C5=O)cc4)cc3)cc2)cc1` (repeat unit) showed a glass transition temperature of 143.00 °C.
Work on `*c1ccc(Sc2ccc(Sc3ccc(Sc4ccc(Sc5ccc(N6C(=O)c7ccc(Sc8ccc(Sc9ccc(Sc%10ccc%11c(c%10)C(=O)N(*)C%11=O)cc9)cc8)cc7C6=O)cc5)s4)s3)s2)cc1` (repeat unit) yielded a glass transition temperature of 177.00 °C.
With `*CC(*)CCCCCCCC` (repeat unit) the glass transition temperature was -35.00 °C.
For `*O[Si](C)(CCC(F)(F)C(F)(F)C(F)(F)C(F)(F)C(F)(F)C(F)(F)F)O[Si](C)(C)c1ccc([Si](*)(C)C)cc1` (repeat unit), the glass transition temperature was -55.00 °C.
Compound `*C(=O)c1ccc2c(c1)C(=O)N(c1cccc(C(=O)c3ccccc3N3C(=O)c4ccc(*)cc4C3=O)c1)C2=O` (repeat unit) has a glass transition temperature of 259.00 °C.
`*C(=O)OCCN(CCOC(=O)c1ccc2c(c1)C(=O)N(c1c(C)cc(Cc3cc(C)c(N4C(=O)c5ccc(*)cc5C4=O)c(C)c3)cc1C)C2=O)c1ccc(/N=N/c2ccc([N+](=O)[O-])cc2C#N)cc1` (repeat unit) showed a glass transition temperature of 216.00 °C.
`*CC(*)(C)C(=O)OCCCCCCCCCCOc1ccc(/N=N/c2ccccc2)cc1` (repeat unit) showed a glass transition temperature of 56.00 °C.
Work on `*CCOC(=O)CC(C)O*` (repeat unit) yielded a glass transition temperature of -37.10 °C.
`*CC(*)n1cc2ccccc2n1` (repeat unit) gave a glass transition temperature of 41.50 °C.
`*c1ccc(Oc2ccc(C3(c4ccc(Oc5ccc(N6C(=O)c7ccc(Oc8c(C)cc(C(C)(C)c9cc(C)c(Oc%10ccc%11c(c%10)C(=O)N(*)C%11=O)c(C)c9)cc8C)cc7C6=O)cc5)cc4)C4CC5CC(C4)CC3C5)cc2)cc1` (repeat unit) gave a glass transition temperature of 282.00 °C.
Compound `*c1ccc(C(=O)c2cccc(C(=O)c3ccc(S(*)(=O)=O)cc3)c2)cc1` (repeat unit) has a glass transition temperature of 198.00 °C.
`*Oc1cc(C(C)(C)C)c(Oc2ccc(C(=O)Nc3ccc(C(C)(C)c4ccc(NC(=O)c5ccc(*)cc5)cc4)cc3)cc2)cc1C(C)(C)C` (repeat unit) gave a glass transition temperature of 254.00 °C.
